Reference: paper PMC10329651, “ATPase activity of DFCP1 controls selective autophagy” (Nature Communications, 2023)

Key:
[1] = target: T1, DFCP1-FL (Homo sapiens, UniProt Q9HBF4); test: malachite green phosphate release (Biomol Green); type: biochemical; conditions: 0.5 mM ATP, 10 mM MgCl2, 10 µM ZnCl2, pH 7.5, 37 °C, 30 min; with and without liposomes
T1 construct: gene ZFYVE1; full length, His6-tagged, Sf9 baculovirus
T1 sequence (Q9HBF4 1-777): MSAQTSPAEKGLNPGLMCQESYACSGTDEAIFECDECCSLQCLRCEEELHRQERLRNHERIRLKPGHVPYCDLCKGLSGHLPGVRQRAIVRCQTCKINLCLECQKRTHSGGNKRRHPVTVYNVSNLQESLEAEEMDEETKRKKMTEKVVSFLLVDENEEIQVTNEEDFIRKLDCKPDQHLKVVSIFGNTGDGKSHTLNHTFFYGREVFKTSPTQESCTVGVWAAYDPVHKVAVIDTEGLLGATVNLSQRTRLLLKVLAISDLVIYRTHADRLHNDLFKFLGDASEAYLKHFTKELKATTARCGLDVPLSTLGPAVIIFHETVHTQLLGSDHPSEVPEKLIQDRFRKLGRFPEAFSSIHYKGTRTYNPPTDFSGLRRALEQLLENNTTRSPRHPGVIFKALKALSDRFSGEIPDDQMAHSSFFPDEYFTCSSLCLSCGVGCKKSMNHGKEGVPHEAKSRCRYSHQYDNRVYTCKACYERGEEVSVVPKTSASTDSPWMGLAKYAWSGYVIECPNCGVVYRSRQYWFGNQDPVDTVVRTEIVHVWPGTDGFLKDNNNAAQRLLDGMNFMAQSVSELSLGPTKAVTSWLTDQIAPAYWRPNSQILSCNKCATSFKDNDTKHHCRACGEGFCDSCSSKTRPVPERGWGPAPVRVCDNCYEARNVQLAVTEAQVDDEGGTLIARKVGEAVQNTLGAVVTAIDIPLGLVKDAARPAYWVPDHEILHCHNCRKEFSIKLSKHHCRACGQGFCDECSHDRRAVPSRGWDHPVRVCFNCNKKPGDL

[2] = target: T2, DFCP1 WT (aa 1–410) (Homo sapiens, UniProt Q9HBF4); test: size exclusion chromatography, nucleotide-dependent dimerization; type: binding; conditions: 400 µM nucleotide, 50 mM MgCl2; non-hydrolysable ATP analogue
T2 construct: gene ZFYVE1; N-terminal ATPase domain, aa 1-410, His6-MBP fusion (pET-His6-MBP-TEV-LIC, E. coli Rosetta2(DE3))
T2 sequence (Q9HBF4 1-410): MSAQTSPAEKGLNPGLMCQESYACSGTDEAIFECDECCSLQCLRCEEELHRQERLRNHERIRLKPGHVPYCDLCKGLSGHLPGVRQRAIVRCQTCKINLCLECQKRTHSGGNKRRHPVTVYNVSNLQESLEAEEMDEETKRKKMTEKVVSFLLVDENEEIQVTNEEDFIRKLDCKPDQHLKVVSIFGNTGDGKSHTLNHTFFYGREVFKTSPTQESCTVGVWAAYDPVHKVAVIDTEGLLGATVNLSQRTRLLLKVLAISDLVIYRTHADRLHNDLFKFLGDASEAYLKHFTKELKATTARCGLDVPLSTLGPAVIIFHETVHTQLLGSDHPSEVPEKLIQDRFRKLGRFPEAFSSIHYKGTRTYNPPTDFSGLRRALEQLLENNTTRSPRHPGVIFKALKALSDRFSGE

[3] = target: the molecule itself; test: SEC; protein loaded with 400 µM ATPγS for 20 min at RT in exchange buffer (50 mM Tris, 150 mM NaCl, 50 mM MgCl2, 10% glycerol, 1 mM TCEP); Superdex 200 Increase 10/300 GL, isocratic elution at 4 °C, 0.25 ml/min; molecular weights relative to a Bio-Rad gel filtration standard

`Nc1ncnc2c1ncn2[C@@H]1O[C@H](COP(=O)(O)OP(=O)(O)OP(=O)(O)O)[C@@H](O)[C@H]1O` [ATP] was tested, and the “malachite green phosphate release (Biomol Green)” value [1] was “Addition of liposomes to purified full-length DFCP1 resulted in a modest, but significant increase”.

In the case of `Nc1ncnc2c1ncn2[C@@H]1O[C@H](COP(=O)(O)OP(=O)(O)OP(O)(O)=S)[C@@H](O)[C@H]1O` [ATPγS], the “size exclusion chromatography, nucleotide-dependent dimerization” value [2] is reported as “ADP-bound DFCP1 migrated as a monomer, ATPγS-loaded DFCP1 migrated as dimer”.

B1: His6-MBP-DFCP1 WT (aa 1-410) (domain or fragment, UniProt Q9HBF4 1-410, looked up)
chain: MSAQTSPAEKGLNPGLMCQESYACSGTDEAIFECDECCSLQCLRCEEELHRQERLRNHERIRLKPGHVPYCDLCKGLSGHLPGVRQRAIVRCQTCKINLCLECQKRTHSGGNKRRHPVTVYNVSNLQESLEAEEMDEETKRKKMTEKVVSFLLVDENEEIQVTNEEDFIRKLDCKPDQHLKVVSIFGNTGDGKSHTLNHTFFYGREVFKTSPTQESCTVGVWAAYDPVHKVAVIDTEGLLGATVNLSQRTRLLLKVLAISDLVIYRTHADRLHNDLFKFLGDASEAYLKHFTKELKATTARCGLDVPLSTLGPAVIIFHETVHTQLLGSDHPSEVPEKLIQDRFRKLGRFPEAFSSIHYKGTRTYNPPTDFSGLRRALEQLLENNTTRSPRHPGVIFKALKALSDRFSGE
notes: Loaded with ADP or ATPγS before size exclusion chromatography; dimer with ATPγS, monomer with ADP; The vector has a TEV site, but no cleavage is described; also called DFCP1 N-terminus; DFCP1 ATPase domain; not shown: His6, N-terminal, kept; MBP, N-terminal, kept
B1 was tested, and the “stoichiometry N” value [3] was 2.
